Assay results as given in PMC6060382, “Inhibition of α-, β-, γ-, and δ-carbonic anhydrases from bacteria and diatoms with N′-aryl-N-hydroxy-ureas” (Journal of Enzyme Inhibition and Medicinal Chemistry, 2018).
pKi: −log10 of the molar value. Like-named read-outs stand apart in the source and are kept apart here.

Experiments:
Assay in all cases: stopped-flow CO2 hydrase assay
VchCAγ = target: T1, VchCAγ (Vibrio cholerae, UniProt Q9KVT1); assay type: biochemical; conditions: CO2 hydration, 10 mM Tris pH 8.3, 0.1 M Na2SO4, 25 °C, 15 min preincubation
T1 construct: gene VC_0058
T1 sequence (Q9KVT1 1-184): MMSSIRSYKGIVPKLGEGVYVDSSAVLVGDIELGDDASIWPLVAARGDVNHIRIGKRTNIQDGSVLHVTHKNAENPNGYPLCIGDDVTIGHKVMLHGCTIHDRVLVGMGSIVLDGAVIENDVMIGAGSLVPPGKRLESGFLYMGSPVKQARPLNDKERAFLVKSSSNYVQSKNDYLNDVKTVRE

PgiCAβ = target: T2, PgiCAβ (Porphyromonas gingivalis, UniProt B2RL07); assay type: biochemical; conditions: CO2 hydration, 10 mM Tris pH 8.3, 0.1 M Na2SO4, 25 °C, 15 min preincubation
T2 construct: gene PGN_1533
T2 sequence (B2RL07 19-242): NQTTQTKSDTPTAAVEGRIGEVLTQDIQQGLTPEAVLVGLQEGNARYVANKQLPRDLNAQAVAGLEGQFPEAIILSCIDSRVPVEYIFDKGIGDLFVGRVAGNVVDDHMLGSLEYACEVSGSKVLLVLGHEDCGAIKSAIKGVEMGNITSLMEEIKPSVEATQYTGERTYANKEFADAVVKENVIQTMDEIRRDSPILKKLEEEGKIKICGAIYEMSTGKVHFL

TweCAδ = target: T3, TweCAδ (Conticribra weissflogii, UniProt Q5U9J1); assay type: biochemical; conditions: CO2 hydration, 10 mM HEPES pH 7.5, 0.1 M Na2SO4, 25 °C, 15 min preincubation
T3 construct: gene ca1
T3 sequence (Q5U9J1 1-281): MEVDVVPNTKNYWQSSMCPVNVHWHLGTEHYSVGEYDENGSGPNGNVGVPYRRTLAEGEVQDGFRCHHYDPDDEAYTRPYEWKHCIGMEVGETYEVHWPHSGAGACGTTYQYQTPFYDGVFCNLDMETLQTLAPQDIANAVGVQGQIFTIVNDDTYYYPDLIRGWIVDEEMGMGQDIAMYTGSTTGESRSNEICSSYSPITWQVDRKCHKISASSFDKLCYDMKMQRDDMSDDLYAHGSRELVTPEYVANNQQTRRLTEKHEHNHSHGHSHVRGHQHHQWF

VchCAβ = target: T4, VchCAβ (Vibrio cholerae, UniProt Q9KUD6); assay type: biochemical
T4 construct: gene VC_0586
T4 sequence (Q9KUD6 1-222): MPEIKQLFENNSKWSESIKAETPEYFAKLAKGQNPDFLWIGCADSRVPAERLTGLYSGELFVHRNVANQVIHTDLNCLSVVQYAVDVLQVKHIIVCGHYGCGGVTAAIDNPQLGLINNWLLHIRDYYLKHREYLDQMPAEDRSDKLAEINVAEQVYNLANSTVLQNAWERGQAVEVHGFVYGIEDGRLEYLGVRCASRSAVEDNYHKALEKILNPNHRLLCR

PgiCAγ = target: T5, PgiCAγ; assay type: biochemical, Porphyromonas gingivalis; conditions: CO2 hydration, 10 mM Tris pH 8.3, 0.1 M Na2SO4, 25 °C, 15 min preincubation
T5 construct: gene PgiCA

VchCAα = target: T6, VchCAα (Vibrio cholerae, UniProt Q9KMP6); assay type: biochemical; conditions: read-out: VchCAα; CO2 hydration, 10 mM HEPES pH 7.5, 0.1 M Na2SO4, 25 °C, 15 min preincubation
T6 construct: gene VC_A0274
T6 sequence (Q9KMP6 21-239 limits assumed): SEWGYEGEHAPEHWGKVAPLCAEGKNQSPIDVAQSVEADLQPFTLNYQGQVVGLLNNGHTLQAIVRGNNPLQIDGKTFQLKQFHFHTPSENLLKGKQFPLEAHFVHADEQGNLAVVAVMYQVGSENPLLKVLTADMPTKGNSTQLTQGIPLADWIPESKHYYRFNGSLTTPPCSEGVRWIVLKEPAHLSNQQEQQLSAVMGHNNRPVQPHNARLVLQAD

SMILES	pKi (VchCAγ; read-out: VchCAγ)	pKi (PgiCAβ; read-out: VchCAγ)	pKi (TweCAδ; read-out: VchCAγ)	pKi (VchCAβ; read-out: VchCAβ)	pKi (PgiCAγ; read-out: PgiCAγ)	pKi (VchCAα)	pKi (PgiCAβ; read-out: PgiCAβ)	pKi (TweCAδ; read-out: PgiCAβ)	pKi (VchCAγ; read-out: VchCAα)	pKi (PgiCAβ; read-out: VchCAα)	pKi (TweCAδ; read-out: TweCAδ)	pKi (VchCAβ; read-out: VchCAα)	pKi (PgiCAγ; read-out: VchCAα)	pKi (TweCAδ; read-out: VchCAα)
O=C(NO)Nc1ccccc1 [compound 1, 1: H]	< 5.00	< 5.00	< 5.00	5.74	5.19	5.14								
O=C(NO)Nc1ccc([N+](=O)[O-])cc1 [compound 7, 7: 4-O2N]	< 5.00	< 5.00	< 5.00	7.27	5.57	6.29								
Cc1ccc(C)c(NC(=O)NO)c1 [compound 9, 9: 2,5-Me2]	5.26			7.23	7.07	7.01	< 5.00	< 5.00						
Cc1cc(NC(=O)NO)ccc1F [compound 15, 15: 4-F-3-Me]					5.54	< 5.00			< 5.00	< 5.00	5.41	< 5.00		
COc1ccccc1NC(=O)NO [compound 19, 19: 2-MeO]	5.32					< 5.00					5.54	< 5.00	< 5.00	
O=C(NO)Nc1ccc(C(F)(F)F)cc1Cl [compound 18, 18: 4-CF3-2-Cl]	5.27					< 5.00					6.07	< 5.00	< 5.00	
O=C(NO)Nc1ccccc1Cl [compound 5, 5: 2-Cl]	< 5.00	< 5.00	< 5.00	7.19	5.52	5.23								
O=C(NO)Nc1ccccc1[N+](=O)[O-] [compound 8, 8: 2-O2N]	5.25			7.28	7.08	6.27	< 5.00	< 5.00						
Cc1ccc(NC(=O)NO)cc1 [compound 2, 2: 4-CH3]	< 5.00	< 5.00	< 5.00	6.32	6.53	6.95								
CCOc1ccccc1NC(=O)NO [compound 13, 13: 2-EtO]					< 5.00	< 5.00				< 5.00	7.48	< 5.00		
O=C(NO)Nc1ccc(C(F)(F)F)cc1 [compound 17, 17: 4-CF3]					5.58	< 5.00			< 5.00	< 5.00	5.33	< 5.00		
O=C(NO)Nc1c(F)c(F)c(F)c(F)c1F [compound 16, 16: F5]					5.46	< 5.00			< 5.00	< 5.00	5.47	< 5.00		
O=C(NO)Nc1ccc(Oc2ccccc2)cc1 [compound 20, 20: 4-PhO]						< 5.00			< 5.00		6.12	< 5.00	< 5.00	
O=C(NO)Nc1ccc(Cl)cc1 [compound 4, 4: 4-Cl]	< 5.00	< 5.00		6.27	6.03	5.36					5.06			
O=C(NO)Nc1cccc(Cl)c1 [compound 6, 6: 3-Cl]	< 5.00	< 5.00	< 5.00	7.22	6.09	5.40								
CCOC(=O)c1cccc(NC(=O)NO)c1 [compound 11, 11: 3-EtOOC]						< 5.00			< 5.00	< 5.00	5.07	< 5.00	< 5.00	
Cc1cc(C)cc(NC(=O)NO)c1 [compound 12, 12: 3,5-Me2]					5.26	< 5.00			< 5.00	< 5.00	7.24	< 5.00		
Cc1ccccc1NC(=O)NO [compound 3, 3: 2-CH3]	< 5.00	< 5.00	< 5.00	6.42	5.38	6.08								
CSc1cccc(NC(=O)NO)c1 [compound 14, 14: 3-MeS]					7.22	< 5.00				< 5.00	7.28	< 5.00		
O=C(NO)Nc1ccc(F)cc1 [compound 10, 10: 4-F]						< 5.00			< 5.00	< 5.00			< 5.00	< 5.00
